One may read the IC50 as the point on the concentration scale where inhibition reaches its midpoint.

In patent US20070060573A1, “Acyltryptophanols” (priority 2005, published 2007) one finds IC50 data, which are given here for seven compounds.

The experiment concerns the target T1, human FSH receptor (Homo sapiens, UniProt P23945).
T1 construct: expressed in transfected cells; host or cells: CHO cells (hFSHR clone 16)
T1 sequence (P23945 18-695): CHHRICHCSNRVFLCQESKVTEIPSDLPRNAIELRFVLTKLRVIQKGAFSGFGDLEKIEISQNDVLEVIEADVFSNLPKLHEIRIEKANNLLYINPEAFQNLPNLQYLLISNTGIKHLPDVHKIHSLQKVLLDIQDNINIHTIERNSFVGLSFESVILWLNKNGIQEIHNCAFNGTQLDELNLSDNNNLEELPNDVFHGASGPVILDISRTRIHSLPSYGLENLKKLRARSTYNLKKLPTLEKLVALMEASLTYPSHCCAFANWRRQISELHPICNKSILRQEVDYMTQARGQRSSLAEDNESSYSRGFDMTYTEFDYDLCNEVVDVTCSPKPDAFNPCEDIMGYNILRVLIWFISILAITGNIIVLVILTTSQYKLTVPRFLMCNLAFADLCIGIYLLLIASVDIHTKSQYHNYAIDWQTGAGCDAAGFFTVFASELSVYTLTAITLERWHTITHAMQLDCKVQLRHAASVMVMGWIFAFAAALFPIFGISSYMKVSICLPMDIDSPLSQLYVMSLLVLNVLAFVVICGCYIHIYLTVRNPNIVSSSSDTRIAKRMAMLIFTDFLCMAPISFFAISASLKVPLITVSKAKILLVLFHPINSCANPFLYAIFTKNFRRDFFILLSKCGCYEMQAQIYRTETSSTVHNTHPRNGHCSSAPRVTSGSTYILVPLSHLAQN
The experiment can be described thus: HTRF assay for measuring cAMP in cells, FSH-antagonistic effect (in the presence of hFSH). It counts as cell-based. Conditions: hFSHR clone 16 cells (CHO cells stably transfected with the human FSH receptor), in the presence of 1e-9 mol/l hFSH, 37° C. for 2 h.
Text: […]
For orientation: Time-resolved FRET reads energy transfer from a long-lived donor to a nearby acceptor.
As to `COc1cc(-c2cc(/C=C\CCCO)cc(C(=O)N[C@@H](CO)Cc3c[nH]c4ccccc34)c2)cc(OC)c1OC` [Example 388, 5-((Z)-5-Hydroxypent-1-enyl)-3′,4′,5′-trimethoxybiphenyl-3-carboxylic acid [(R)-1-hydroxy-methyl-2-(1H-indol-3-yl)ethyl]amide], the 50% inhibitory concentration (IC50) amounted to 400 nM. Next, `COCCCc1ccc2nc(-c3cc(OC)c(OC)c(OC)c3)cc(C(=O)N[C@@H](CO)Cc3c[nH]c4ccccc34)c2c1` [Example 392, 6-(3-Methoxypropyl)-2-(3,4,5-trimethoxyphenyl) quinoline-4-carboxylic acid [(R)-1-hydroxy-methyl-2-(1H-indol-3-yl)ethyl]amide]: 1500 nM; `COc1ccc(-c2cc(CCCO)cc(C(=O)N[C@@H](CO)Cc3c[nH]c4ccccc34)c2)cc1OC` [Example 396, 5-(3-Hydroxypropyl)-3′,4′-dimethoxybiphenyl-3-carboxylic acid [(R)-1-hydroxymethyl-2-(1H-indol-3-yl)ethyl]amide]: 3500 nM; `COc1ccc(-c2cccc(C(=O)N[C@@H](CO)Cc3cn(CCCCC#N)c4ccccc34)c2)cc1F` [Example 403, N-[(R)-2-[1-(4-Cyanobutyl)-1H-indol-3-yl]-1-(hydroxymethyl)ethyl]-3′-fluoro-4′-methoxy[1,1′-biphenyl]-3-carboxamide]: 100 nM. For the compound `O=C(N[C@@H](CO)Cc1c[nH]c2ccccc12)c1cc(-c2ccc3c(c2)OCO3)ccc1OC1CCCC1` [Example 418, 5-Benzo[1,3]dioxol-5-yl-2-cyclopentyloxy-N-[(R)-1-hydroxymethyl-2-(1H-indol-3-yl)ethyl]benzamide], the IC50 was determined as 300 nM. On to `CCOc1ccc(-c2cccc(-c3ccccc3)c2)cc1C(=O)NC(CO)Cc1c[nH]c2ccccc12` (stereo not shown) [Example 430, 4-Ethoxy-[1,1′; 3′,1″]terphenyl-3-carboxylic acid [1-hydroxymethyl-2-(1H-indol-3-yl)ethyl]amide], for which the IC50 was determined as 400 nM. Turning to `CCOc1ccc(-c2ccc(S(=O)(=O)CC)cc2)cc1C(=O)N[C@@H](CO)Cc1c[nH]c2ccccc12` [Example 483, 4-Ethanesulphonyl-4-ethoxybiphenyl-3-carboxylic [(R)-2-hydroxy-1-(1H-indol-3-ylmethyl)ethyl]amide], the half-inhibitory concentration (IC50) was found to be 1000 nM.
